We go through four molecules from ChEMBL document CHEMBL1136535, “Unexpected inhibition of S-adenosyl-L-homocysteine hydrolase by a guanosine nucleoside” (Bioorg Med Chem Lett, 2003).

Usually Ki stands for a dissociation constant, usually derived from enzyme kinetics or from competition with a known ligand. Higher therefore signals lower affinity.

The structures appear in SMILES notation.

Assay [1] concerns the target T1, Adenosylhomocysteinase (Homo sapiens, UniProt P23526). Briefly: Inhibitory activity against S-adenosyl-L-homocysteine hydrolase was determined.
Assay [2] addresses T1, Adenosylhomocysteinase. The assay can be described thus: Inhibitory activity against S-adenosyl-L-homocysteine hydrolase was determined in hydrolysis direction.
Assay [3] addresses T1, Adenosylhomocysteinase. Briefly: Inhibitory activity against S-adenosyl-L-homocysteine hydrolase was determined in synthetic directions.

T1 sequence (P23526 whole entry): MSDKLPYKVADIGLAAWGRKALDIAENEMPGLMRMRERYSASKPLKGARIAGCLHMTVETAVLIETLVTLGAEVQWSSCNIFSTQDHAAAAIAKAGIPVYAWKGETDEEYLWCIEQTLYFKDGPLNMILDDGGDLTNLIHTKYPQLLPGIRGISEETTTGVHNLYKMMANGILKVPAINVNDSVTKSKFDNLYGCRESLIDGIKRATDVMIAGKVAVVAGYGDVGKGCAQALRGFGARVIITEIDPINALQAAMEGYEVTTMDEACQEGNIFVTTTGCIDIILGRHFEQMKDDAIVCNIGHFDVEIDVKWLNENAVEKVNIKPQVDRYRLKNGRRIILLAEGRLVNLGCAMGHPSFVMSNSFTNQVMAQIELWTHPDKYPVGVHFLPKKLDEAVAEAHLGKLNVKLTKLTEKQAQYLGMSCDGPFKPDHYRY

With `OC[C@H]1OC(n2cncc2-c2cc(O)ncn2)[C@H](O)[C@@H]1O` (stereo not given in full), the affinity in assay [1] corresponds to a Ki of 422 µM.

Regarding `Nc1nc(O)cc(-c2cncn2C2O[C@H](CO)[C@@H](O)[C@H]2O)n1` (stereo not given in full), the Ki in assay [2] is 128 µM; in assay [3] it was 217 µM.

Turning to `Nc1nc2c(ncn2[C@@H]2O[C@H](CO)[C@@H](O)[C@H]2O)c(=O)[nH]1` [GUANOSINE], the Ki in assay [1] turned out to be 1470 µM.

`OC[C@H]1O[C@@H](n2cnc3c(O)ncnc32)[C@H](O)[C@@H]1O` [INOSINE] registered a Ki in assay [1] of 925 µM.
